{
  "source": "patent US20250195474A1",
  "about": "“Piezo Inhibition for Wound Healing” (priority 2022, published 2025)",
  "key": {"[1]": {"system": "human foreskin xenograft wounds", "experiment": "Human foreskin xenograft wound model", "assay_type": "in vivo", "conditions": "POD 14", "method": "For the xenograft model, adult immunocompromised CD-1 nude mice were purchased from The Jackson Laboratory (Bar Harbor, ME). Mice were maintained at the Stanford University Research Animal Facility, SIM-1 Barrier Facility in accordance with Stanford University guidelines. All experiments were performed under an approved APLAC protocol (APLAC #11048). 3 mice were used for each group.\nDiscarded postnatal human foreskin samples were collected after circumcision at the Lucille Packard Children's Hospital at Stanford under a Stanford University Institutional Review Board (IRB) approved protocol (IRB #45219). Samples were not used if collected >8 hours after circumcision; samples were kept in Dulbecco's Modified Eagle Medium (ThermoFisher Scientific™, Waltham, MA) on ice until grafting. Foreskin was prepared by removal of all subcutaneous tissue, including muscle, and divided into 1 cm sections to be grafted.\nNude mice were induced and maintained with 2-4% isoflurane (Product: 502017, MWI Veterinary Supply Co.®; Boise, ID) at a rate of 2 L/min. While anesthetized, Betadine Surgical Scrub Veterinary (Avrio Health L.P.™, Stamford, CT) and sterile alcohol prep pads (FisherScientific™, Pittsburgh, PA) were used to prepare the dorsum. A 1.2 cm full-thickness excision of dorsal skin was created with forceps and sharp scissors. The foreskin graft was then placed into the full-thickness wound. […]"}, "wound cells": {"system": "wound cells", "experiment": "scRNA-seq and CellChat analysis of POD 14 wounds"}, "existing scars": {"system": "existing scars", "experiment": "CODEX spatial protein analysis of treated existing scars", "assay_type": "in vivo, mouse", "excerpt": "To spatially phenotype the pig specimens, we used Co-Detection by Indexing (CODEX), a novel assay in which markers are labeled with oligonucleotide-conjugated antibodies and iteratively imaged between cyclic additions and washouts of dye-labeled oligonucleotides. A custom CODEX panel was designed to assess wound cells within the tissue see Table 1). In brief, primary antibodies were individually barcoded and validated using the commercial supplier's protocols. OCT for mouse or paraffin blocks for human xenograft (n=3 per group) were sectioned at 8 μm thickness onto coverslips for CODEX antibody staining. Antigens were retrieved by standard citrate-EDTA processing prior to addition of CODEX antibodies. Using a CODEX-integrated Keyence BZ-X instrument (Akoya Biosciences) image acquisition was then performed. Using software from Akoya Biosciences the raw images were process, with cell segmentation, and rendering.\nThe CODEX was visualized using Akoya Biosciences Multiplex Analysis Viewer (MAV) in ImageJ. The resulting .fcs files were then concatenated in FlowJo and imported into the Monocle3 and STvEA R packages for further analysis. After debris removal, the processed UMAP manifold was analyzed through Monocle3 with a post-manifold threshold of >10,000 cells per cluster. Analysis of the protein staining patterns was then used to assign cell types. The cell interactions were then inferred using STvEA for cell types at >2.5% of total abundance at k=20 nearest neighbors to quantify cell spatial interactions, and differential interaction maps were generated using graph scores.\nTo phenotype the spatial environment in the context of rescuing existing scars, CODEX was further employed to spatially define protein expression, cell populations, and associated cell-cell interactions (FIG. 10A; markers shown in Table 1 middle column, 39A). […]"}, "human fibroblasts": {"system": "human fibroblasts", "experiment": "Human fibroblasts in 3D collagen gels with stretching", "assay_type": "cell-based", "excerpt": "To further confirm that human cluster 3 represented a pro-regenerative ADF population we utilized our in vitro collagen gel system. We first, FACS sorted human fibroblasts based on expression of cluster 3 markers including ROBO2, CD29, and SFRP2 and seeded them into 3D collagen gels (FIG. 42B). […] In contrast, stretching with P1 inhibition kept the fibroblasts in a more adipocyte-like phenotype, with high expression of PPARg and low expression of Collagen Type I, similar to fibroblasts in an unstretched state (FIG. 42B).\nTo determine if P1i may activate […] Wnt pathways to maintain cluster 3 in an adipocyte-like phenotype, we applied Wnt5a recombinant protein to the in vitro collagen gel system (FIG. 42C). […] In summary, P1i treatment may revert fibroblasts towards the mechanically naïve fibroblast pro-regenerative fibroblast population through the activation of canonical Wnt pathways and thereby preventing the transition to pro-scarring phenotypes defined by CJUN and VCAM1 expression."}},
  "note": "No end group written: not given here.",
  "data": [
    {"substance": "GsMTx4 (GCLEFWWKCNPNDDKCCRPKLKCSKLFKLCNFSF; ends and bridges not checked; cysteine pairing not given here; UniProt Q7YT39 47-80, looked up) [P1i]", "values": [
      {"measurement": "ECM ultrastructure", "setting": "[1]", "value": "indistinguishable from that of unwounded xenograft skin"},
      {"measurement": "relative adipocytes and fibroblasts among sequenced wound cells", "setting": "wound cells; POD 14", "value": "relatively more adipocytes and fewer fibroblasts"},
      {"measurement": "CellChat interactions between cluster 5 fibroblasts and adipocytes", "setting": "wound cells; POD 14, vs control wounds", "value": "enhanced interactions between cluster 5 fibroblasts and adipocytes"},
      {"measurement": "CellChat signaling of adipocyte pathways (Leptin, Chemerin, PD-L1)", "setting": "wound cells; POD 14, vs control wounds", "value": "enhanced signaling of known adipocyte pathways"},
      {"measurement": "CellChat signaling of cluster 5 fibroblasts with other cell types", "setting": "wound cells; POD 14, vs control wounds", "value": "increase in signaling between cluster 5 fibroblasts and most other cell types"},
      {"measurement": "adipocyte cluster 2 interactions with epithelial cells", "setting": "existing scars; POD 60, 105 and 150", "value": "interacted more strongly with epithelial cells"},
      {"measurement": "expression of mechanical markers", "setting": "existing scars; POD 60, 105 and 150", "value": "PBS treated wounds showed higher expression of mechanical markers"},
      {"measurement": "interactions mediated by adipocyte clusters", "setting": "existing scars; vs PBS treated scars", "value": "enriched interactions mediated by adipocyte cluster 2"},
      {"measurement": "phenotype of human fibroblasts (PPARg, Collagen Type 1)", "setting": "human fibroblasts", "value": "a more adipocyte like phenotype with high expression of PPARg and low expression of Collagen Type 1"}
    ]}
  ]
}
